Source: patent US20250235418A1, “Butyrate Analogues and Methods of Use for HIF Stabilization and Treatment of Bowel Disease” (THE REGENTS OF THE UNIVERSITY OF COLORADO, A BODY CORPORATE, priority 2022, published 2025)

Key:
[1] = system: HIF-1α / PHDs in murine colon; assay: tributyrin oral gavage with or without MCPA in antibiotic SCFA-depleted mice; assay type: in vivo
Description: We next confirmed that butyrate functions as a PHD inhibitor in vivo through antibiotic-mediated depletion of the gut microbiota and SCFAs in mice. […] We administered tributyrin (200 μL), a prodrug of butyrate composed of a glycerol backbone with three butyrate moieties, to SCFA-depleted mice via oral gavage every day for three days with glycerol as a control. Additionally, some mice given tributyrin were subjected with a rectal gavage of 60 mM MCPA to inhibit butyrate metabolism 4 h prior to sacrifice. […] 60 mM MCPA was chosen as a well-tolerated dose that inhibited β-oxidation in mice and rats. […] HIF-la protein was also diminished in epithelial scrapings (FIG. 8B) and whole colon tissue (FIG. 8C) with antibiotic treatment, which was also rescued with tributyrin supplementation with or without MCPA. […] The stabilization of HIF-1α in whole colon tissue also is in agreement with our findings in HMEC-1 and A549 cells that PHD inhibition by butyrate expands to beyond just IECs alone.

[2] = oral gavage, 1 h after dosing, mice; cited from earlier work
[3] = tributyrin with or without MCPA

CCCC(=O)OCC(COC(=O)CCC)OC(=O)CCC [tributyrin]
HIF-1α protein after antibiotic depletion ([1]; epithelial scrapings and whole colon tissue, tributyrin with or without MCPA): rescued
colon tissue 2-OG levels after antibiotic depletion [1, 3]: recovered
colon tissue butyrate levels after antibiotic depletion [1, 3]: rescued
HIF-1α target gene Bnip3l mRNA after antibiotic depletion ([1]; whole colon tissue and epithelial scrapings, tributyrin 200 μL oral gavage 3 d, with or without MCPA): normalized
plasma butyrate concentration [2]: > 1 mM
